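Values below derive from 48-hour exposures of cells grown in 96-well plates, with endpoints linearly interpolated between the two concentrations bracketing the appropriate inhibition level. The concentration for 50% growth inhibition is given as GI50. TGI: total growth inhibition.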
Tests used:
Experiment in all cases: NCI anticancer screen, dose series, 48 h
HCT-116 colon = test system: HCT-116 colon
K-562 leukemia = test system: K-562 leukemia
KM12 colon = test system: KM12 colon
M14 melanoma = test system: M14 melanoma
MALME-3M melanoma = test system: MALME-3M melanoma
NCI-H226 lung = test system: NCI-H226 lung
SF-268 CNS = test system: SF-268 CNS
SF-295 CNS = test system: SF-295 CNS
SF-539 CNS = test system: SF-539 CNS
SK-MEL-5 melanoma = test system: SK-MEL-5 melanoma

COc1ccc(CN2C(=O)/C(=C\c3cc(OC)c(OC)c(OC)c3)c3cc(OC)ccc32)cc1
GI50 (HCT-116 colon): 1630 nM | TGI (HCT-116 colon): 3.05 µM | GI50 (K-562 leukemia): 3.13 µM | TGI (K-562 leukemia): > 35.5 µM | GI50 (KM12 colon): 2040 nM | TGI (KM12 colon): 4.05 µM | GI50 (M14 melanoma): 1980 nM | TGI (M14 melanoma): 4.32 µM | GI50 (MALME-3M melanoma): 3.82 µM | TGI (MALME-3M melanoma): 34.1 µM | GI50 (NCI-H226 lung): 3.93 µM | TGI (NCI-H226 lung): 22.8 µM | GI50 (SF-268 CNS): 2680 nM | TGI (SF-268 CNS): 7.05 µM | GI50 (SF-295 CNS): 3.26 µM | TGI (SF-295 CNS): > 31.4 µM | GI50 (SF-539 CNS): 1860 nM | TGI (SF-539 CNS): 3.76 µM | GI50 (SK-MEL-5 melanoma): 3.09 µM | TGI (SK-MEL-5 melanoma): 9.41 µM

Source: PubChem BioAssay (NCI)
